Measurements published in patent US6057294A, “Peptide” (Northern Sydney Area Health Service of Pacific Highway, priority 1995, dated 2000).
Ends that are not written are not given here.

What was measured:
[1] = test system: 2B4.11 T-cell activation (IL-2 production); experiment: Antigen presentation assay (IL-2 production by 2B4.11 T-cells, CTLL proliferation readout); format: cell-based; conditions: 100 μM
From the text: An antigen presentation assay (described below) examined the ability of a number of peptides to inhibit T-cell activation following antigen recognition, by measuring the product of T-cell activation, Interleukin-2 (IL-2).
Material. The following cell lines were used: 2B4.11, a T-cell hybridoma that expresses a complete antigen receptor on the cell surface (Samelson et al., 1983) and produces IL-2 following antigen recognition (cytochrome c). Interleukin-2 dependent T-cell line (CTLL) for conventional biological IL-2 assays; and the B-cell hybridoma cell line LK 35.2 (LK, I-E^k bearing; Kappler et al., 1982) which acts as the antigen presenting cell. The hybridomas were grown in TCM. Cytochrome c (Sigma, USA) was added in the media to give a final concentration of 50 μM in the antigen presenting assay.
Peptides examined included: core peptide, seven other control peptides from a variety of sources having an equivalent length to core peptide and peptides A, B, C, D, E and F. The final concentration of the peptides in the antigen presentation assay was examined at several levels ranging from 10 μM to 100 μM.
Method. […] Supernatants were recovered and IL-2 content determined by CTLL proliferation. […] In addition to measuring ^3 H-thymidine incorporation, IL-2 measurements (IU/ml) were also determined. […]

[2] = test system: diabetes in NOD/Lt (F) mice; experiment: Cyclophosphamide induced diabetes in NOD/Lt (F) mice; format: in vivo, mouse; conditions: for PERCENTAGE OF MICE DEVELOPING DIABETES: 250 μg s.c. on Day -1, 0 and 1, n = 16
Procedure: In yet another model of T-cell mediated disease the effects of subcutaneously injected core peptide on the induction of diabetes in NOD/Lt (F) mice was tested "blind" by an independent experimenter (Prof L Harrison, WEHI, Melbourne). NOD/Lt(F) mice 10 weeks old at experimental Day 0. This is a high-incidencestrain commonly used as an animal model for diabetes. Core peptide dissolved in squalane at a stock concentration of 3.33 mg/ml. Ovalbumin used as a control was suspended in squalane at a stock concentration of 3.33 mg/ml. Peptide and ovalbumin were "solubilised" just prior to injection, with vortexing. A total of 250 μg (75 μl) was injected subcutaneously on the right flank on Day -1, 0 and 1. Mice were given intraperitoneal cyclophosphamide in water at 300 mg/kg on Day 0. Blood glucose measurements were taken on Day 0, 10, 14 and 21. There were 16 mice in the treatment group and 16 in the ovalbumin control group.

TCR on 2B4.11 cells = experiment: TCR assembly and cell surface expression on T-cells by flow cytometry; format: cell-based
Procedure: The T-cell hybridoma 2B4.11 which expresses a complete TCR on the cell surface was used as a positive control to assess the effects of peptides on TCR expression. The cells were grown in TCM. The β-deficient variant 21.2.2 and the β- and .zeta.-deficient cell line 3.12.29, derived by repetitive subcloning of 2B4.11 cells (Sussman et al., 1988) and lacking TCR expression were used as negative controls.
Peptides tested included core peptide, lipopeptides and a peptide from tumor necrosis factor receptor termed 558 (used as a negative control). […]
The following antibodies were used for immuno-precipitation and flow cytometry analysis: Mouse IgG2a monoclonal antibody (MAb) against TCR-α chain of the T-cell hybridoma 2B4 (A2B4-2, Samelson et al., 1983), MAb against 2B4.11 TCR-β chain (K)25), hamster IgG anti-CD3-ε MAb (145-2C11 [2C11], Leo et al., 1987), rabbit anti-CD3-ε polyclonal antiserum raised against purified mouse CD3-ε (127, Minami et al., 1987), anti-CD3-δ polyclonal antibody (R9) raised in goat immunized with a COOH-terminal peptide of the mouse CD3-δ chain (Samelson et al., 1986).
FACS analysis: 1×10^6 (2B4.11, 21.2.2) cells were incubated with a number of separate peptides and lipopeptides in a final concentration of 10 μM overnight. The cells were then wvashed with PBS and incubated with 50 μl primary antibody (A2B4 or 2C11) for 30 mins at 4° C. […]

[3] = test system: adjuvant induced arthritis in rats; experiment: Adjuvant induced arthritis in rats; format: in vivo, rat; conditions: for tail thickness: n = 5; for EFFECT: peptides 7 mg/rat, CS 50 mg/kg, DXM 2 mg/kg, given with MTB adjuvant
[4] = test system: experimental allergic neuritis in Lewis rats; experiment: Experimental allergic neuritis (EAN); format: in vivo, rat; conditions: peptide added to immunisation emulsion at 70 mg/ml

In the case of CCCCCCCCCCCCCCCC(=O)O [Palmitic acid, reference compound], the “effect on IL-2 production” value [1] is reported as “did not affect IL-2 production”.
“Ovalbumin: Ovalbumin used as a control, suspended in squalane [reference compound]” was tested, and the “PERCENTAGE OF MICE DEVELOPING DIABETES” value ([2]; DAY 0) was 0%, the “PERCENTAGE OF MICE DEVELOPING DIABETES” value ([2]; DAY 10) was 0% and the “PERCENTAGE OF MICE DEVELOPING DIABETES” value ([2]; DAY 14) was 42%. The “PERCENTAGE OF MICE DEVELOPING DIABETES” value ([2]; DAY 21) was 65%.
With GLRILLLKV [core peptide] the “cell surface expression of TCR” value (TCR on 2B4.11 cells; 10 μM, overnight, 2B4.11 cells) was “did not alter the cell surface expression”, the “T-cell surface antigen receptor expression” value (TCR on 2B4.11 cells; 100 μM, incubation 1-10 days) was “no change in T-cell surface antigen receptor expression” and the “reduction in IL-2 production compared to control” value [1] was 15%-30%. For the same molecule, the “EFFECT OF PEPTIDE” value ([3]; 1.7 mg) was “No effect”, the “EFFECT OF PEPTIDE” value ([3]; 3.5 mg) was “Protective” and the “EFFECT OF PEPTIDE” value ([3]; 7 mg) was “Protective”. It also gave a tail thickness ([3]; DAY 5, MTB + peptide) of 7.62 mm, a tail thickness ([3]; DAY 10, MTB + peptide) of 8.24 mm and a tail thickness ([3]; DAY 15, MTB + peptide) of 8.76 mm. The tail thickness ([3]; DAY 20, MTB + peptide) was 8.96 mm, the tail thickness ([3]; DAY 25, MTB + peptide) was 9.10 mm and the “ulceration and inflammation at the site of injection” value ([3]; compared with MTB alone) was “not present”. For the same molecule, the “effect on adjuvant arthritis” value ([3]; comparison among peptides) was “Best results”, the “animals with no evidence of arthritis” value ([3]; first experiment, 3 rats per group, 0.1 ml suspension in adjuvant, after 18 days) was 2/3 and the EFFECT [3] was “Protective”. The “difference in tail measurements versus saline injected rats” value ([3]; rat, in vivo) was “not statistically significant”, the “induction and clinical severity of EAN” value [4] was “delayed induction and clinical severity of disease” and the “PERCENTAGE OF MICE DEVELOPING DIABETES” value ([2]; DAY 0) was 0%. For the same molecule, the “PERCENTAGE OF MICE DEVELOPING DIABETES” value ([2]; DAY 10) was 0%, the “PERCENTAGE OF MICE DEVELOPING DIABETES” value ([2]; DAY 14) was 5% and the “PERCENTAGE OF MICE DEVELOPING DIABETES” value ([2]; DAY 21) was 12%. For the same molecule, the “effect on the induction of autoimmune beta cell destruction (diabetes)” value ([2]; mouse, in vivo) was “protective effect”.
C[C@@H]1C[C@H]2[C@@H]3CCC4=CC(=O)C=C[C@]4(C)[C@@]3(F)[C@@H](O)C[C@]2(C)[C@@]1(O)C(=O)CO [DXM, dexamethasone, reference compound] was tested, and the “onset of arthritis delayed by” value ([3]; 2 mg/kg) was 3 to 4 days and the EFFECT [3] was “No effect”.
